A word on the melting point: it is the temperature, or range, at which the solid turns liquid.

Take `CCCCCC(=O)OC(C)OC1=C(C(=O)Nc2ccccn2)N(C)S(=O)(=O)c2ccccc21` (configuration not stated): the melting point lay within 62 to 65 °C.
In the case of `Nc1nccnc1C=O` it was 110 to 114 °C; in that of `O=c1c2ccccc2ccc2ccc(S(=O)(=O)C(F)(F)F)cc12`, 145 to 149 °C; in that of `Cc1cccc2sc(-n3nc(CCC(=O)N(C)O)cc3-c3ccsc3)nc12`, 142 to 143 °C.
In the case of `CC(=O)c1cc(C=O)c(O)cc1O` it was 134 to 136 °C.
In the case of `Cc1cc(N2CCN(C(=O)c3ccc(Nc4ccnc5cc(C(F)(F)F)ccc45)cc3)CC2)nc(N)n1` it was 283 to 286 °C; in that of `CCOC(=O)c1cnc(N(C)Cc2cc3nc(-c4cccc(OCCO)c4)nc(N4CCOCC4)c3s2)nc1`, 216 to 220 °C.
Regarding `O=c1oc2c(-c3ccccc3)cccc2c(O)c1-c1ccccc1`, the melting point stood at 211 °C.
Under `O=C(c1nc2ccccc2s1)C1CCN(CCc2ccc(F)cc2)CC1` stands 97 to 98 °C; under `C=CCCCCc1ccc(C(=O)O)cc1`, 79 to 82 °C.
Under `Oc1ccc2c(c1)COc1c-2cc2ccc(O)cc2c1-c1ccsc1` stands 159 to 161 °C; under `COP(=O)(OC)C(O)[C@H](CC1CCCCC1)NC(=O)[C@H](CC(C)C)NC(=O)OCc1ccccc1` (some centres not stated), 151 °C; under `CCOC(=O)c1cc(=O)c2c(OCC(O)CSC)cccc2o1` (configuration not stated), 69 to 71 °C.
The compound `CC1(C)CC(c2ccc3ccccc3c2)c2ccc(O)cc2O1` (configuration not stated) displayed a melting point of 189 to 191 °C.
Under `CC1(C(=O)Nc2ccc(Oc3ccc(Cl)cc3)c(C(F)(F)F)c2)CC1` stands 115 to 117 °C; under `CN(C)C=Nc1sc([N+](=O)[O-])cc1C#N`, 230 °C; under `Cc1c(F)cccc1Cc1c(-c2ccccc2)c2cc(O)cnn2c1C(=O)N1CCNCC1`, 206 to 208 °C.
Under `NC(=O)c1c(Cl)c(-c2ccccc2)n2c1CN(C(=O)N1CCOCC1)CC2` stands 219 to 220 °C.
Under `O=C(O)C1=Cc2c(Cl)cc(Cl)cc2OC1C(F)(F)F` (configuration not stated) stands 190 to 191 °C.
Take `Cc1oc(-c2ccccc2)nc1COc1ccc(C(=O)Nc2nn(-c3ccccc3)cc2C=O)cc1`: the melting point is 185 to 186 °C.
In the case of `CCOC(=O)c1ccc(CBr)c(F)c1`, the melting point was 42.5 to 44 °C.
Under `CC(=O)OC1CCC2C3CCC4=CC(=O)C(I)C(C)C4(C)C3CCC12C` (configuration not stated) stands 102 °C; under `OCCNc1c(Br)cnc2ccccc12`, 163 to 165 °C; under `CC1(C)OC(=O)c2c(cccc2-c2ccccc2)O1`, 158 to 163 °C.
In the case of `CCOC(=O)c1ccc(C)c(Nc2nccc(-c3cccnc3)n2)c1`, the melting point lay in the range of 95 to 96 °C.
In the case of `Oc1cccc(Sc2ncccc2O)c1` it was 147 to 148 °C; in that of `CC(C)(C)OC(=O)CC1(CC(=O)O)CCC(=O)Nc2ccccc21` (configuration not stated), 117 to 119 °C.
Under `O=C1C=CC(=O)N1CO` stands 96.5 to 97 °C; under `O=C(O)Cc1ccc(Br)cc1F`, 121 to 122 °C.
Under `CCCNC(=O)Nc1c(C(=O)OCC)cnn1-c1ccccc1` stands 117 to 118 °C; under `Cc1ccc(S(=O)(=O)n2ccc3c(CBr)cccc32)cc1`, 113 to 134 °C.
Regarding `O=C(Nc1cccc2c1C(=O)c1c-2n[nH]c1-c1ccc(C(=O)NC2CCCCC2)s1)NN1CCOCC1`, the melting point lay in the range of 264 to 267 °C.
Regarding `O=C(Oc1ccccc1)OC1c2nccnc2C(=O)N1c1ccc2ccc(Cl)nc2n1` (configuration not stated), the melting point was 270 °C.
In the case of `CCCc1nc2nc3cc(Cl)ccc3nc2[nH]1` it was 280 to 282 °C; in that of `CC(=O)NCc1ncc(-n2nc(C)cc2C)nc1Nc1ccc(Cl)cc1`, 228 to 230 °C.
Under `CCCN(C(=O)Cl)C(=O)CCl` stands 40 to 44 °C; under `CCN1CCCN(c2c(C)cccc2Cl)C1=S`, 88 to 90 °C; under `Cc1nc(-c2ccc(Cl)cc2)nn1CCC=O`, 108 to 109 °C.
For the compound `CCn1c2ccccc2c2cc3ccccc3c(C=O)c21`, the melting point fell in the range of 95.5 to 96.5 °C.
`NC(=O)c1cnc(C(N)=O)cn1` showed a melting point of more than 270 °C.
In the case of `CN(C)S(=O)(=O)c1cc(-c2csc(=Nc3ccccc3Cl)n2C)ccc1Cl` it was 152 to 154 °C.
Under `CON=C(C(=O)O)c1nc(N)c(Cl)cc1Cl` stands 139 to 144 °C; under `CC(C)OP(=O)(OCN1C(=O)c2c(C(C)C)cc(OCC(=O)O)cc2S1(=O)=O)OC(C)C`, 118 to 125 °C; under `CCc1cc(N)c(I)c(CC)n1`, 72 to 74 °C.
`CCNC(=O)ON1C(=O)CCC1=O`: the melting point was in the range of 131 to 133 °C.
Under `Cc1nc2cnc(N3CCN(CCCC(=O)c4ccc(F)cc4)CC3)cc2[nH]1` stands 180 to 183 °C; under `CC(C)(C)OC(=O)NC(Cc1ccccc1)C(=O)Nc1nc(CC(=O)O)cs1` (configuration not stated), 189 to 190 °C; under `CSC(=N)NC(c1ccccc1)c1ccc(C)cc1` (configuration not stated), 130 to 132 °C.
Under `CCCCC(=O)CC(=O)c1ccc(C2CCC(CC)CC2)cc1` (configuration not stated) stands 90 °C; under `Sc1nc(CCCC2CCCCC2)c[nH]1`, 176 to 177 °C; under `Cc1ccc2c(c1)c1c(n2C)CC(C(=O)O)CC1` (configuration not stated), 84 to 85 °C.
In the case of `OCc1cc2occc2cn1`, the melting point fell in the range of 72 to 74 °C.
Under `CCNC=C(C(=O)C=Cc1cccnc1)C(=O)OC` stands 78 to 80 °C; under `CC(C)COC(=O)N[C@H](CCCNC(=O)OCc1ccccc1)C(=O)NCc1ccc(CC(N)=O)cc1`, 145 °C.
The compound `C=Cc1ccc(-n2cc(C)c(=O)[nH]c2=O)cc1` had a melting point of 185 °C.
In the case of `CCCCc1nc(CO)c(S(=O)(=O)CC)n1Cc1ccc(-c2ccccc2C(=O)O)cc1` it was 210 °C; in that of `C=CCCOc1ccc(CCCO)c(Oc2ncc(C(F)(F)F)cc2Cl)c1`, 75.2 to 75.8 °C.
Under `COc1ccc(CNc2nc(OCc3ccccn3)ncc2C(N)=O)cc1Cl` stands 208 to 209 °C; under `COc1cc(Sc2nc(C)c(CC(=O)O)s2)nc(OC)n1`, 164 to 165 °C.
In the case of `Nc1nc(Nc2ccc(S(N)(=O)=O)cc2)sc1C(=O)c1c(Cl)cc(C(F)(F)F)cc1Cl` it was 294 to 296 °C.
`O=C(NCCO)c1cccc(-c2ccc3cnn(-c4ccc(Cl)cc4Cl)c3c2)c1` gave a melting point of 191 to 192 °C.
`CSC(=O)C(=O)c1nsc(NC=O)n1` registered a melting point of 186 to 187 °C.
In the case of `CNC(=O)c1ccccc1Nc1nc(Nc2c(OC)ccc3c2CCOC(=O)N3C)ncc1Cl` it was 160 °C; in that of `Cn1ncnc1COc1nn2c(-c3ccc(F)cc3F)nnc2cc1C1(C)CCCCC1`, 196 °C; in that of `O=C(O)C1=NN(c2cccc(Cl)c2)C(c2ccccc2)CC1` (configuration not stated), 157 to 158 °C.
`COCC(=O)NNC(=O)c1cc2cccc(N(C)S(=O)(=O)c3cccs3)c2[nH]1` gave a melting point of 148 to 149 °C.
In the case of `COc1cc(OC)nc(NCC2COC3(CCC(C(C)(C)C)CC3)O2)n1` (configuration not stated) it was 76 to 106 °C; in that of `COC(=O)NC(=O)Cc1nc(-c2cc(C(C)(C)C)c(O)c(C(C)(C)C)c2)oc1C`, 125 to 127 °C; in that of `CCN(CC)C(=O)c1c(C(C)(O)c2cc3cnccc3n2S(=O)(=O)c2ccccc2)ccnc1OC` (configuration not stated), 236 °C.
Under `CC(=S)NC[C@H]1CN(c2ccc(N3CCC(n4ccnn4)CC3)c(F)c2)C(=O)O1` stands 171 to 172 °C; under `O=[N+]([O-])c1ccc(F)c(-c2ccc3ncccc3c2)c1F`, 152 to 153 °C; under `CCOC1(C)Oc2cccc(OC(=O)NC)c2O1` (configuration not stated), 97 to 98.5 °C.
In the case of `CCOC(=O)C(C)(C)Oc1ccc(CNc2ccccc2)cc1` it was 45 to 46 °C.
Compound `CCOC(=O)c1ccc(N)cc1Br` yielded a melting point of 93 °C.
Turning to `CC(C)(C#N)c1cc(C(=O)c2cccnc2)cc(C(C)(C)C#N)c1`, the melting point was 87 to 89 °C.
In turn, `CC(=O)NC[C@H]1CN(c2ccc(-n3cc(-c4ccc(C)cc4)cn3)c(F)c2)C(=O)O1` returned a melting point of 222 to 223 °C.
In the case of `c1ccc(-c2cn3cnnc3cn2)cc1` it was 231 to 233 °C.
Turning to `COc1ccc(-c2cc(=O)c3c(O)cc(OCC4=COC(C)(C)O4)cc3o2)cc1OC(=O)C(C)(C)C`, the melting point lay within 204 to 205 °C.
In the case of `O=c1cc[nH]c2c(Sc3nc4ccccc4[nH]3)cccc12` it was more than 240 °C; in that of `Nc1cccc(-c2ccc(OCC3CCN3)c3ccccc23)n1` (configuration not stated), 135 to 150 °C.
Compound `CCOC(=O)c1c2ccc(Cl)cc2c(-c2ccccc2)n1CCCN(CC)C(C)=O` yielded a melting point of 102 to 104 °C.
As to `Cc1cccc(C(=O)Cc2ccnc(NC(=O)c3ccccc3)c2)c1`, the melting point lay in the range of 67 to 69 °C.
In the case of `COC(=O)CCCc1cc2cc(Cl)ccc2n1S(=O)(=O)c1cccc(Cl)c1Cl` it was 115 to 117 °C; in that of `CCCn1ccnc(S(=O)(=O)Cc2ccc(Cl)cc2)c1=O`, 125 to 128 °C; in that of `O=c1ccc2cc(OCc3cn(-c4ccccc4Cl)nn3)ccc2o1`, 164 to 166 °C.
In the case of `CN(CCCN1c2ccccc2CCc2ccccc21)C(=O)c1cccnc1`, the melting point is 84 to 86 °C.
`O=C(NC1CNCCn2c1nc(-c1ccncn1)cc2=O)c1ccccn1` (racemic) displayed a melting point of 256 to 258 °C.
Take `CCOc1c(-c2nnn[nH]2)oc2c3ccccc3n(-c3ccccc3)c12`: the melting point fell in the range of 189 to 192 °C.
Regarding `CSc1ccc(N2CCON(C)C2=O)cc1C(F)(F)F`, the melting point was 60 °C.
`O=S(=O)(CC1CC1)c1nc(-c2ccc(F)cc2)c(-c2ccc(F)cc2)[nH]1`: the melting point came to 251 °C.
Compound `O=C(O)c1ccc(S(F)(F)(F)(F)F)cc1[N+](=O)[O-]` came in with a melting point of 165 to 167 °C.
`Cc1cc(C(=O)O)n(-c2ccc(F)cc2)n1`: the melting point turned out to be 188 °C.

Values taken from a melting point compilation (Tetko et al.; mined from patent text by program, amines drawn as free bases though some values may be those of a salt).
